From ChEMBL document CHEMBL3621088, “Synthesis of novel acridine bis-sulfonamides with effective inhibitory activity against the carbonic anhydrase isoforms I, II, IX and XII” (Bioorg Med Chem, 2015)

Biological target: Carbonic anhydrase 9 (Homo sapiens, UniProt Q16790)
Description: Inhibition of recombinant human carbonic anhydrase 9 catalytic domain expressed in Escherichia coli incubated for 15 mins prior to testing by stopped flow CO2 hydrase assay

Ki [nM]	SMILES
580	CC1(C)CC(=O)C2=C(C1)N(c1ccc(S(N)(=O)=O)cc1)C1=C(C(=O)CC(C)(C)C1)C2c1ccc(NS(=O)(=O)c2ccccc2)cc1
100	Cc1ccc(S(=O)(=O)Nc2ccc(C3C4=C(CC(C)(C)CC4=O)N(c4ccc(S(N)(=O)=O)cc4)C4=C3C(=O)CC(C)(C)C4)cc2)cc1
810	CC1(C)CC(=O)C2=C(C1)N(c1ccc(S(N)(=O)=O)cc1)C1=C(C(=O)CC(C)(C)C1)C2c1cccc(NS(=O)(=O)c2ccc3ccccc3c2)c1
110	CC1(C)CC(=O)C2=C(C1)N(c1ccc(S(N)(=O)=O)cc1)C1=C(C(=O)CC(C)(C)C1)C2c1cccc(NS(=O)(=O)c2ccccc2)c1
1000	CC1(C)CC(=O)C2=C(C1)N(c1ccc(S(N)(=O)=O)cc1)C1=C(C(=O)CC(C)(C)C1)C2c1ccc(N)cc1
1120	CC1(C)CC(=O)C2=C(C1)N(c1ccc(S(N)(=O)=O)cc1)C1=C(C(=O)CC(C)(C)C1)C2c1ccc(NS(=O)(=O)c2ccc(Br)cc2)cc1
280	CC1(C)CC(=O)C2=C(C1)N(c1ccc(S(N)(=O)=O)cc1)C1=C(C(=O)CC(C)(C)C1)C2c1ccc(NS(=O)(=O)c2ccc3ccccc3c2)cc1
440	COc1ccc(S(=O)(=O)Nc2ccc(C3C4=C(CC(C)(C)CC4=O)N(c4ccc(S(N)(=O)=O)cc4)C4=C3C(=O)CC(C)(C)C4)cc2)cc1
250	CC1(C)CC(=O)C2=C(C1)N(c1ccc(S(N)(=O)=O)cc1)C1=C(C(=O)CC(C)(C)C1)C2c1cccc(NS(=O)(=O)c2ccc(Br)cc2)c1
800	COc1ccc(S(=O)(=O)Nc2cccc(C3C4=C(CC(C)(C)CC4=O)N(c4ccc(S(N)(=O)=O)cc4)C4=C3C(=O)CC(C)(C)C4)c2)cc1

SMILES	Ki [nM]
CC1(C)CC(=O)C2=C(C1)N(c1ccc(S(N)(=O)=O)cc1)C1=C(C(=O)CC(C)(C)C1)C2c1cccc(N)c1	920
Cc1ccc(S(=O)(=O)Nc2cccc(C3C4=C(CC(C)(C)CC4=O)N(c4ccc(S(N)(=O)=O)cc4)C4=C3C(=O)CC(C)(C)C4)c2)cc1	100
